Test results as given in publication PMC11053447, “Human ABC and SLC Transporters: The Culprit Responsible for Unspecific PSMA-617 Uptake?” (Pharmaceuticals, 2024).

How the values were obtained:
[1] = target: T1, human OAT3 (Homo sapiens, UniProt Q8TCC7); experiment: SLC transporter substrate assay, HEK293-OAT3-LV vs control HEK293-Mock-LV cells; settings: 20 min
T1 sequence (Q8TCC7 1-542): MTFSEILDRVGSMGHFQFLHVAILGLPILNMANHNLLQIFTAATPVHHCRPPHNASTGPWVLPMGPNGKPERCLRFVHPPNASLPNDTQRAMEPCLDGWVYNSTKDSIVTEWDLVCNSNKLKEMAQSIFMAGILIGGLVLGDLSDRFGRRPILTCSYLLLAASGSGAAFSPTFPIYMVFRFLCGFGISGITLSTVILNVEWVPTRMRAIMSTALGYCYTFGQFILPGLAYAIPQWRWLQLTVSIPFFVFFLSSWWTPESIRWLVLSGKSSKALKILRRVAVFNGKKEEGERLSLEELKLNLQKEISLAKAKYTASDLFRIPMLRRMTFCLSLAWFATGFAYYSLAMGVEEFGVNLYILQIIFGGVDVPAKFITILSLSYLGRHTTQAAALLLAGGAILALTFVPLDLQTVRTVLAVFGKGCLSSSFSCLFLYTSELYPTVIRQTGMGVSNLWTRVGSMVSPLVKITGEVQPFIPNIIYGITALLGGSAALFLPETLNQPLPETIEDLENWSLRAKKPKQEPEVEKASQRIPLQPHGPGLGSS

[2] = target: T2, MRP4 (Homo sapiens, UniProt O15439); experiment: Vesicular transport inhibition assay (ABC), MRP4-mediated DHEAS transport, HEK293 membrane vesicles; format: in vitro ADME; settings: for Relative inhibition / ATP dependent transport / Relative ATP dependent transport: DHEAS probe; for ATP dependent transport / Relative ATP dependent transport: mean (n=3) ± SD
T2 construct: host or cells: HEK293 (membrane vesicles)
T2 sequence (O15439 1-1325): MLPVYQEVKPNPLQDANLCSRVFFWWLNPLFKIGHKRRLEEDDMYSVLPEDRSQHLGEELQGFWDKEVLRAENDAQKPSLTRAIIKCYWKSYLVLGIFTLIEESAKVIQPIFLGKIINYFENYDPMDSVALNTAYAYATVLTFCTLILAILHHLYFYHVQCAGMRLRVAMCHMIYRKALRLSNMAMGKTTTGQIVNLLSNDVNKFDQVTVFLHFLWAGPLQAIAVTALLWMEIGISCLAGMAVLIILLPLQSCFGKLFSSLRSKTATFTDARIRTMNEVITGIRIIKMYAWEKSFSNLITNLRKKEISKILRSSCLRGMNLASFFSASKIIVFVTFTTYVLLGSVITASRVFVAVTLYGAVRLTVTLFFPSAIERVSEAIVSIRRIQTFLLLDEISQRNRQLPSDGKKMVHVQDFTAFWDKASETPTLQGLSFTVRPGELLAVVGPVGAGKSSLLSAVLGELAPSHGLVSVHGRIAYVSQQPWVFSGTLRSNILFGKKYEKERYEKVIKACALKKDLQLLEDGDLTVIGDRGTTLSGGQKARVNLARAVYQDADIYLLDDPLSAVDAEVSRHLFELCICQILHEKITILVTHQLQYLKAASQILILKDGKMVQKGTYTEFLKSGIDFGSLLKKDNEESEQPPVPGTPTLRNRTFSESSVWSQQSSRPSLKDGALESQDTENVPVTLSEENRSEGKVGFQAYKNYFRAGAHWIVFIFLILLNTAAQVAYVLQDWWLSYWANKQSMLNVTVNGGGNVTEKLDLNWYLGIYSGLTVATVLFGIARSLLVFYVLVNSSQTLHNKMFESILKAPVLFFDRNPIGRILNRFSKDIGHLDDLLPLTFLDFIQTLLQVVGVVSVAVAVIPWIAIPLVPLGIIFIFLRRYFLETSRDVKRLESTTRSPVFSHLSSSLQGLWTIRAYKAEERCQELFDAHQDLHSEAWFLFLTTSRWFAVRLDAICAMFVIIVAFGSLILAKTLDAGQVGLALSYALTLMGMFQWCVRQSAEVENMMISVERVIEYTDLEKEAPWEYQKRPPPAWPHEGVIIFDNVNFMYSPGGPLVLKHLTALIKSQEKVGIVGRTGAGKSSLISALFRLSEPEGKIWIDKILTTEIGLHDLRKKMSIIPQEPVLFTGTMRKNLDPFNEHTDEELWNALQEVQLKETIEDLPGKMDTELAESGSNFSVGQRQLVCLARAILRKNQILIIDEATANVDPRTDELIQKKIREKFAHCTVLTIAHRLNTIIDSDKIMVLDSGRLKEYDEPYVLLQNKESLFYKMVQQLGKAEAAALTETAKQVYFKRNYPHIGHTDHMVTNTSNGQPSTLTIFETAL

[3] = 0.03 µM nominal + Probenecid 500 µM
[4] = 0.30 µM nominal + Probenecid 500 µM

SMILES: [3H]C(c1ccc2ccccc2c1)C([3H])(NC(=O)C1CCC(CNC(=O)CN2CCN(CC(=O)[O-])CCN(CC(=O)[O-])CCN(CC(=O)[O-])CC2)CC1)C(=O)NCCCCC(NC(=O)NC(CCC(=O)O)C(=O)O)C(=O)O.[Lu+3] (stereo not drawn) [([α,β-^3H]Nal)Lu-PSMA-617]
- Accumulation in OAT3 transporter expressing cells [1, 3]: 0.05 ± 0.01 pmol/mg protein
- Accumulation in control cells [1, 3]: 0.03 ± 0.01 pmol/mg protein
- Accumulation, active transport [1, 3]: 0.02 ± 0.01 pmol/mg protein
- Fold accumulation [1, 3]: 1.56
- Accumulation in OAT3 transporter expressing cells ([1]; 0.03 µM nominal, no inhibitor): 0.07 ± 0.01 pmol/mg protein
- Accumulation in control cells ([1]; 0.03 µM nominal, no inhibitor): 0.03 ± 0.00 pmol/mg protein
- Accumulation, active transport ([1]; 0.03 µM nominal, no inhibitor): 0.03 ± 0.01 pmol/mg protein
- Fold accumulation ([1]; 0.03 µM nominal, no inhibitor): 1.96
- Accumulation in OAT3 transporter expressing cells [1, 4]: 0.74 ± 0.15 pmol/mg protein
- Accumulation in control cells [1, 4]: 0.29 ± 0.07 pmol/mg protein
- Accumulation, active transport [1, 4]: 0.45 ± 0.17 pmol/mg protein
- Fold accumulation [1, 4]: 2.52
- Accumulation in OAT3 transporter expressing cells ([1]; 0.30 µM nominal, no inhibitor): 0.60 ± 0.13 pmol/mg protein
- Accumulation in control cells ([1]; 0.30 µM nominal, no inhibitor): 0.29 ± 0.06 pmol/mg protein
- Accumulation, active transport ([1]; 0.30 µM nominal, no inhibitor): 0.31 ± 0.14 pmol/mg protein
- Fold accumulation ([1]; 0.30 µM nominal, no inhibitor): 2.09
- Max. transporter-specific fold accumulation, without inhibitor ([1]; 0.3 µM): 2.09
- Uptake via transporter (OAT3) ([1]; absence and presence of probenecid): not taken up
- Max. transporter-specific fold accumulation, with inhibitor ([1]; Probenecid, 0.3 µM): 2.52
- Inhibitor assessment (MRP4) ([2]; 0.30 and 3.00 µM, inhibition >20% defined as significant): no inhibitor
- Relative inhibition ([2]; test substance 0.30 µM nominal): -1%
- ATP dependent transport ([2]; test substance 0.30 µM nominal): 13761.00 ± 400.40 pmol/mg/min
- Relative ATP dependent transport ([2]; test substance 0.30 µM nominal): 100.94 ± 4.07 % of control
- Relative inhibition ([2]; test substance 3.00 µM nominal): -6%
- ATP dependent transport ([2]; test substance 3.00 µM nominal): 14510.33 ± 290.35 pmol/mg/min
- Relative ATP dependent transport ([2]; test substance 3.00 µM nominal): 106.44 ± 3.66 % of control
